The values that follow come from the NIST ThermoML archive (doi:10.1021/je100861u).

The conditions of series [1]: Liquid; Distillation.
Series [2] can be described thus: refractive index (Na D-line) (dimensionless). As to conditions: 293.15 K; 101.33 kPa; Liquid; Standard Abbe refractometry.

± gives the expanded uncertainty stated by the source.

One may read the refractive index as a measure of how strongly the sample bends light.

In the case of `CC(=O)C(C)O` (centres undefined) [2,3-butanolone], the Normal boiling temperature in series [1] came to 148.38 ± 0.54 °C. In addition, in series [2], the refractive index is given as 1.4198 ± 0.0008.
For `CCCCOC(C)=O` [butyl ethanoate], in that order: 125.96 ± 0.5 °C and 1.3941 ± 0.0007.
